In PMC5218480 (PLoS ONE, 2017):

Tested on: MV-4-11 cells
Experiment: Gene expression microarray analysis (Affymetrix PrimeView) and GSEA
Type: cell-based, human
Design: RFU PODN (11730768_x_at) / Fold change /veh PODN (11730768_x_at) / RFU LINC00158 (11744669_a_at) / Fold change /veh LINC00158 (11744669_a_at) / RFU DUSP10 (11751237_a_at) / Fold change /veh DUSP10 (11751237_a_at) / RFU ID3 (11757404_x_at) / Fold change /veh ID3 (11757404_x_at) / RFU PLEKHG5 (11737974_s_at) / Fold change /veh PLEKHG5 (11737974_s_at) / RFU LRRC4B (11730491_at) / Fold change /veh LRRC4B (11730491_at) / RFU GIMAP4 (11747438_a_at) / Fold change /veh GIMAP4 (11747438_a_at) / RFU KRT8 (11758183_x_at) / Fold change /veh KRT8 (11758183_x_at) / RFU CNN1 (11734310_a_at) / Fold change /veh CNN1 (11734310_a_at) / RFU VPS37D (11726825_at) / Fold change /veh VPS37D (11726825_at) / RFU C10orf10 (11716522_x_at) / Fold change /veh C10orf10 (11716522_x_at) / RFU KIR2DL2 /// KIR2DL4 /// KIR2DL5A /// KIR2DL5B /// KIR2DS1 /// KIR2DS2 /// KIR2DS3 /// KIR2DS4 /// KIR3DL3 /// KIR3DL3 /// KIR3DS1 (11738374_at) / Fold change /veh KIR2DL2 /// KIR2DL4 /// KIR2DL5A /// KIR2DL5B /// KIR2DS1 /// KIR2DS2 /// KIR2DS3 /// KIR2DS4 /// KIR3DL3 /// KIR3DL3 /// KIR3DS1 (11738374_at) / RFU C1QL1 (11718748_at) / Fold change /veh C1QL1 (11718748_at) / RFU TMPRSS4 (11747572_a_at) / Fold change /veh TMPRSS4 (11747572_a_at) / RFU HAMP (11756126_x_at) / Fold change /veh HAMP (11756126_x_at) / RFU RNFT2 (11725882_a_at) / Fold change /veh RNFT2 (11725882_a_at) / RFU NR4A2 (11747474_a_at) / Fold change /veh NR4A2 (11747474_a_at) / RFU ABCC12 (11746883_a_at) / Fold change /veh ABCC12 (11746883_a_at) / RFU TMEM136 (11760407_x_at) / Fold change /veh TMEM136 (11760407_x_at) / RFU CLDN22 /// WWC2 (11732394_at) / Fold change /veh CLDN22 /// WWC2 (11732394_at) / RFU HLA-DPB1 (11760878_x_at) / Fold change /veh HLA-DPB1 (11760878_x_at) / RFU SPINT1 (11716480_a_at) / Fold change /veh SPINT1 (11716480_a_at) / RFU GAP43 (11754022_s_at) / Fold change /veh GAP43 (11754022_s_at) / RFU A4GNT (11735810_at) / Fold change /veh A4GNT (11735810_at) / RFU PRB3 (11715151_x_at) / Fold change /veh PRB3 (11715151_x_at) / RFU TUBB4B (11761932_at) / Fold change /veh TUBB4B (11761932_at) / RFU CAPN14 (11732068_a_at) / Fold change /veh CAPN14 (11732068_a_at) / RFU TMCC2 (11721928_a_at) / Fold change /veh TMCC2 (11721928_a_at) / RFU IRGQ (11745062_a_at) / Fold change /veh IRGQ (11745062_a_at) / RFU FAM174B (11720279_a_at) / Fold change /veh FAM174B (11720279_a_at) / RFU TMPRSS4 (11748680_a_at) / Fold change /veh TMPRSS4 (11748680_a_at) / RFU FAM212B (11763350_a_at) / Fold change /veh FAM212B (11763350_a_at) / RFU PLEKHG5 (11743358_a_at) / Fold change /veh PLEKHG5 (11743358_a_at) / RFU ZSCAN30 (11745921_a_at) / Fold change /veh ZSCAN30 (11745921_a_at) / RFU CMKLR1 (11741424_a_at) / Fold change /veh CMKLR1 (11741424_a_at) / RFU LOC101060620 /// MAPK8IP1 (11723275_at) / Fold change /veh LOC101060620 /// MAPK8IP1 (11723275_at) / RFU SPTSSB (11747773_x_at) / Fold change /veh SPTSSB (11747773_x_at) / RFU PRSS12 (11739890_at) / Fold change /veh PRSS12 (11739890_at) / RFU BIN1 (11741810_x_at) / Fold change /veh BIN1 (11741810_x_at) / RFU WNT11 (11732464_a_at) / Fold change /veh WNT11 (11732464_a_at) / RFU C10orf10 (11716521_a_at) / Fold change /veh C10orf10 (11716521_a_at) / RFU C5orf56 (11738089_at) / Fold change /veh C5orf56 (11738089_at) / RFU CYB561 (11721691_x_at) / Fold change /veh CYB561 (11721691_x_at) / RFU ANKRD19P (11752326_a_at) / Fold change /veh ANKRD19P (11752326_a_at) / RFU OR2T12 /// OR2T33 /// OR2T8 (11738714_s_at) / Fold change /veh OR2T12 /// OR2T33 /// OR2T8 (11738714_s_at) / RFU VCAN (11748164_a_at) / Fold change /veh VCAN (11748164_a_at) / RFU JSRP1 (11732532_at) / Fold change /veh JSRP1 (11732532_at) / RFU KRTAP10-11 (11738290_x_at) / Fold change /veh KRTAP10-11 (11738290_x_at) / RFU MYO3A (11730013_a_at) / Fold change /veh MYO3A (11730013_a_at) / RFU EBF3 (11725865_a_at) / Fold change /veh EBF3 (11725865_a_at) / RFU CAMK2N1 (11719241_x_at) / Fold change /veh CAMK2N1 (11719241_x_at) / RFU C5orf56 (11738088_a_at) / Fold change /veh C5orf56 (11738088_a_at) / RFU OLFML3 (11715873_a_at) / Fold change /veh OLFML3 (11715873_a_at) / RFU LOC100653217 /// NTM (11731650_a_at) / Fold change /veh LOC100653217 /// NTM (11731650_a_at) / RFU MAPK11 (11762145_a_at) / Fold change /veh MAPK11 (11762145_a_at) / RFU FIZ1 (11724087_x_at) / Fold change /veh FIZ1 (11724087_x_at) / RFU OASL (11726364_x_at) / Fold change /veh OASL (11726364_x_at) / RFU SOX15 (11748057_x_at) / Fold change /veh SOX15 (11748057_x_at) / RFU CD79A (11719716_a_at) / Fold change /veh CD79A (11719716_a_at) / RFU HIST1H1D (11736915_at) / Fold change /veh HIST1H1D (11736915_at) / RFU CASKIN2 (11723855_a_at) / Fold change /veh CASKIN2 (11723855_a_at) / RFU LOC730098 (11760151_x_at) / Fold change /veh LOC730098 (11760151_x_at) / RFU OR4N2 (11742367_at) / Fold change /veh OR4N2 (11742367_at) / RFU PRRT2 (11749266_a_at) / Fold change /veh PRRT2 (11749266_a_at) / RFU SNX32 (11753110_a_at) / Fold change /veh SNX32 (11753110_a_at) / RFU CDHR5 (11726645_a_at) / Fold change /veh CDHR5 (11726645_a_at) / RFU RCAN1 (11760418_a_at) / Fold change /veh RCAN1 (11760418_a_at) / RFU FAM167A (11723789_a_at) / Fold change /veh FAM167A (11723789_a_at) / RFU FAM26E (11764081_at) / Fold change /veh FAM26E (11764081_at) / RFU ISYNA1 (11749810_s_at) / Fold change /veh ISYNA1 (11749810_s_at) / RFU ACY1 (11761880_at) / Fold change /veh ACY1 (11761880_at) / RFU 11764098_at / Fold change /veh 11764098_at / RFU SAMD14 (11745864_x_at) / Fold change /veh SAMD14 (11745864_x_at) / RFU NPB (11741838_a_at) / Fold change /veh NPB (11741838_a_at) / RFU TMPRSS6 (11731388_a_at) / Fold change /veh TMPRSS6 (11731388_a_at) / RFU KRTAP10-2 (11738614_at) / Fold change /veh KRTAP10-2 (11738614_at) / RFU ARHGAP8 /// PRR5-ARHGAP8 (11727945_x_at) / Fold change /veh ARHGAP8 /// PRR5-ARHGAP8 (11727945_x_at) / RFU KRTAP5-7 /// NADSYN1 (11734609_at) / Fold change /veh KRTAP5-7 /// NADSYN1 (11734609_at) / RFU RASL12 (11751679_a_at) / Fold change /veh RASL12 (11751679_a_at) / RFU CDKN2B (11736163_a_at) / Fold change /veh CDKN2B (11736163_a_at) / RFU PRF1 (11729649_at) / Fold change /veh PRF1 (11729649_at) / RFU, ZNF638 /// ZNF638-IT1 / Fold change vs veh, ZNF638 /// ZNF638-IT1 / RFU, PANK3 / Fold change vs veh, PANK3 / RFU, SH3YL1 / Fold change vs veh, SH3YL1 / RFU, ZEB2 / Fold change vs veh, ZEB2 / RFU, NRIP1 / Fold change vs veh, NRIP1 / RFU, PTTG1IP / Fold change vs veh, PTTG1IP / RFU, CAPN2 / Fold change vs veh, CAPN2 / RFU, MED14 / Fold change vs veh, MED14 / RFU, SNORA58 / Fold change vs veh, SNORA58 / RFU, C1orf63 / Fold change vs veh, C1orf63 / RFU, LRRFIP1 / Fold change vs veh, LRRFIP1 / RFU, NDUFAF7 / Fold change vs veh, NDUFAF7 / RFU, SLC12A2 / Fold change vs veh, SLC12A2 / RFU, IBTK / Fold change vs veh, IBTK / RFU, ESF1 / Fold change vs veh, ESF1 / Fold change vs veh, TMEM50B / RFU, TAOK1 / Fold change vs veh, TAOK1 / RFU, ACBD3 / Fold change vs veh, ACBD3 / RFU, TMA16 / Fold change vs veh, TMA16 / RFU, RWDD3 / Fold change vs veh, RWDD3 / RFU, BCAT1 / Fold change vs veh, BCAT1 / RFU, EDEM3 / Fold change vs veh, EDEM3 / RFU, TMEM33 / Fold change vs veh, TMEM33 / RFU, WDR75 / Fold change vs veh, WDR75 / RFU, AHCTF1 / Fold change vs veh, AHCTF1 / RFU, TFRC / Fold change vs veh, TFRC / RFU, ZDHHC17 / Fold change vs veh, ZDHHC17 / RFU, NOM1 / Fold change vs veh, NOM1 / RFU, ARL8B / Fold change vs veh, ARL8B / RFU, ZBTB11 / Fold change vs veh, ZBTB11 / RFU, TAMM41 / Fold change vs veh, TAMM41 / RFU, KIAA1704 /// LOC100996395 / Fold change vs veh, KIAA1704 /// LOC100996395 / RFU, ING1 / Fold change vs veh, ING1 / RFU, TRMT61B / Fold change vs veh, TRMT61B / RFU, FUBP3 / Fold change vs veh, FUBP3 / RFU, TP53 / Fold change vs veh, TP53 / RFU, TNKS2 / Fold change vs veh, TNKS2 / RFU, ZFP14 / Fold change vs veh, ZFP14 / RFU, ACTR2 / Fold change vs veh, ACTR2 / RFU, PPP3R1 / Fold change vs veh, PPP3R1 / RFU, PIK3R1 / Fold change vs veh, PIK3R1 / RFU, HNRNPA1 / Fold change vs veh, HNRNPA1 / RFU, RNF170 / Fold change vs veh, RNF170 / RFU, ZNF28 / Fold change vs veh, ZNF28 / RFU, RNGTT / Fold change vs veh, RNGTT / RFU, OGT / Fold change vs veh, OGT / RFU, BRD1 / Fold change vs veh, BRD1 / RFU, MARS / Fold change vs veh, MARS / RFU, ZNF655 / Fold change vs veh, ZNF655 / RFU, FAHD1 / Fold change vs veh, FAHD1 / RFU, BDP1 / Fold change vs veh, BDP1 / RFU, LRRCC1 / Fold change vs veh, LRRCC1 / RFU, ARID1A / Fold change vs veh, ARID1A / RFU, ZNF146 / Fold change vs veh, ZNF146 / RFU, ZNF330 / Fold change vs veh, ZNF330 / RFU, GPN3 / Fold change vs veh, GPN3 / RFU, C9orf123 / Fold change vs veh, C9orf123 / RFU, N4BP2L2 / Fold change vs veh, N4BP2L2 / RFU, ARFIP1 / Fold change vs veh, ARFIP1 / RFU, FAM179B / Fold change vs veh, FAM179B / RFU, BCL10 / Fold change vs veh, BCL10 / RFU, UHRF1BP1L / Fold change vs veh, UHRF1BP1L / RFU, BET1 / Fold change vs veh, BET1 / RFU, CNOT2 / Fold change vs veh, CNOT2 / RFU, ZNF268 / Fold change vs veh, ZNF268 / Fold change vs veh, ZNF507 / RFU, DGCR2 / Fold change vs veh, DGCR2 / RFU, WDSUB1 / Fold change vs veh, WDSUB1 / Fold change vs veh, HSP90B1 /// MIR3652 / RFU, ADSS / Fold change vs veh, ADSS / RFU, GK / Fold change vs veh, GK / RFU, ZNF148 / Fold change vs veh, ZNF148 / RFU, TAF9 / Fold change vs veh, TAF9 / RFU, SLC1A5 / Fold change vs veh, SLC1A5 / RFU, SLMO2 / Fold change vs veh, SLMO2 / RFU, ABCC4 / Fold change vs veh, ABCC4 / RFU, LOC101060439 /// RAP1B / Fold change vs veh, LOC101060439 /// RAP1B / RFU, RFX7 / Fold change vs veh, RFX7 / RFU, GTPBP10 / Fold change vs veh, GTPBP10 / RFU, CNEP1R1 / Fold change vs veh, CNEP1R1 / RFU, BIVM-ERCC5 /// ERCC5 / Fold change vs veh, BIVM-ERCC5 /// ERCC5 / RFU, ILF3 / Fold change vs veh, ILF3 / RFU 11762660_at / Fold change /veh 11762660_at / RFU VCAN (11757783_s_at) / Fold change /veh VCAN (11757783_s_at) / RFU DDX43 (11728927_at) / Fold change /veh DDX43 (11728927_at) / RFU KRT8 (11758188_x_at) / Fold change /veh KRT8 (11758188_x_at) / RFU NKD1 (11759106_at) / Fold change /veh NKD1 (11759106_at) / RFU SRD5A1 (11742802_a_at) / Fold change /veh SRD5A1 (11742802_a_at) / RFU TPSAB1 /// TPSB2 (11721975_s_at) / Fold change /veh TPSAB1 /// TPSB2 (11721975_s_at) / RFU GSTM3 (11746129_a_at) / Fold change /veh GSTM3 (11746129_a_at) / RFU IL23R (11737362_x_at) / Fold change /veh IL23R (11737362_x_at) / RFU TMEM51 (11727254_a_at) / Fold change /veh TMEM51 (11727254_a_at) / RFU PIWIL2 (11732686_x_at) / Fold change /veh PIWIL2 (11732686_x_at) / RFU ORM1 (11744905_x_at) / Fold change /veh ORM1 (11744905_x_at) / RFU CCDC152 (11743942_at) / Fold change /veh CCDC152 (11743942_at) / RFU ECM1 (11717891_a_at) / Fold change /veh ECM1 (11717891_a_at) / RFU IL23R (11748794_a_at) / Fold change /veh IL23R (11748794_a_at) / RFU TNFAIP8L3 (11732012_x_at) / Fold change /veh TNFAIP8L3 (11732012_x_at) / RFU MBOAT4 (11741988_at) / Fold change /veh MBOAT4 (11741988_at) / RFU 11764193_at / Fold change /veh 11764193_at / RFU TMEM53 (11763286_at) / Fold change /veh TMEM53 (11763286_at) / RFU MAGEB2 (11727129_at) / Fold change /veh MAGEB2 (11727129_at) / RFU TMEM200A (11744735_a_at) / Fold change /veh TMEM200A (11744735_a_at) / RFU CCDC152 (11751479_a_at) / Fold change /veh CCDC152 (11751479_a_at) / RFU FAM211A (11726209_a_at) / Fold change /veh FAM211A (11726209_a_at) / RFU RGS16 (11746705_a_at) / Fold change /veh RGS16 (11746705_a_at) / RFU VCAN (11755009_s_at) / Fold change /veh VCAN (11755009_s_at) / RFU RHOB (11743442_s_at) / Fold change /veh RHOB (11743442_s_at) / RFU RGS16 (11720943_a_at) / Fold change /veh RGS16 (11720943_a_at) / RFU RGS16 (11720944_at) / Fold change /veh RGS16 (11720944_at) / RFU, VPS4B / Fold change vs veh, VPS4B / RFU, CREB1 / Fold change vs veh, CREB1 / RFU, DNAJC13 / Fold change vs veh, DNAJC13 / RFU, GNAQ / Fold change vs veh, GNAQ / RFU, CDK5R1 / Fold change vs veh, CDK5R1 / RFU, ZRANB3 / Fold change vs veh, ZRANB3 / RFU, CUL4A / Fold change vs veh, CUL4A / RFU, CCNY / Fold change vs veh, CCNY / RFU, UFL1 / Fold change vs veh, UFL1 / RFU, COG3 / Fold change vs veh, COG3 / RFU, DIAPH2 / Fold change vs veh, DIAPH2 / RFU, SKA2 / Fold change vs veh, SKA2 / RFU, AFF3 / Fold change vs veh, AFF3 / RFU, LMF1 / Fold change vs veh, LMF1 / RFU, IPO11 / Fold change vs veh, IPO11 / RFU, DFFB / Fold change vs veh, DFFB / RFU, FOXP1 / Fold change vs veh, FOXP1 / RFU, CARD8 / Fold change vs veh, CARD8 / RFU, STRN3 / Fold change vs veh, STRN3 / RFU, ADK / Fold change vs veh, ADK / RFU, RASSF2 / Fold change vs veh, RASSF2 / RFU, WIPF1 / Fold change vs veh, WIPF1 / RFU, LARP1B / Fold change vs veh, LARP1B / RFU, RASA1 / Fold change vs veh, RASA1 / RFU, RB1 / Fold change vs veh, RB1 / RFU, PPFIA1 / Fold change vs veh, PPFIA1 / RFU, MAT2A / Fold change vs veh, MAT2A / RFU, CCT5 / Fold change vs veh, CCT5 / RFU, WDR92 / Fold change vs veh, WDR92 / RFU, CUX1 / Fold change vs veh, CUX1 / RFU, TTC7A / Fold change vs veh, TTC7A / RFU, TMEM135 / Fold change vs veh, TMEM135 / RFU, DEPTOR / Fold change vs veh, DEPTOR / RFU, CPM / Fold change vs veh, CPM / RFU, DNAJB6 / Fold change vs veh, DNAJB6 / RFU, CACNA2D3 / Fold change vs veh, CACNA2D3 / RFU, DTX4 / Fold change vs veh, DTX4 / RFU, TFCP2 / Fold change vs veh, TFCP2 / RFU, GMCL1 /// GMCL1P1 / Fold change vs veh, GMCL1 /// GMCL1P1 / RFU, AEBP2 / Fold change vs veh, AEBP2 / RFU, SNHG1 /// SNORD22 /// SNORD25 /// SNORD26 /// SNORD27 /// SNORD28 /// SNORD29 /// SNORD31 / Fold change vs veh, SNHG1 /// SNORD22 /// SNORD25 /// SNORD26 /// SNORD27 /// SNORD28 /// SNORD29 /// SNORD31 / Fold change (Aza/veh), C12orf56 (ProbeSet 11735607_a_at) / Fold change (ACY-1035/veh), C12orf56 (ProbeSet 11735607_a_at) / Fold change (Aza/veh), FGFR1OP (ProbeSet 11751329_s_at) / Fold change (ACY-1035/veh), FGFR1OP (ProbeSet 11751329_s_at) / Fold change (Aza/veh), VPS36 (ProbeSet 11739960_a_at) / Fold change (ACY-1035/veh), VPS36 (ProbeSet 11739960_a_at) / RFU SYPL1 (11715823_x_at) / Fold change /veh SYPL1 (11715823_x_at) / RFU IGFBP7 (11715501_s_at) / Fold change /veh IGFBP7 (11715501_s_at) / RFU REEP3 (11722064_at) / Fold change /veh REEP3 (11722064_at) / RFU IGLL1 (11728026_x_at) / Fold change /veh IGLL1 (11728026_x_at): dose or concentration left out as unconfirmed
Settings: MV-4-11 cells, 48 hours

Structure (SMILES): Nc1ncn([C@@H]2O[C@H](CO)[C@@H](O)[C@H]2O)c(=O)n1 [azacitidine]
- RFU PRRT2 (11749266_a_at): 42.08 RFU
